Reference: the Deep4Chem optical property database
Values joined by “and” are separate entries in the source; they are usually repeats but may differ in a detail not shown here. Identical values can stand only once.

Experiment: photoluminescence quantum yield (fraction); solvent given as SMILES

COc1ccc(C2=C(c3ccccc3)C(c3ccccc3)=[N+]3C2=Nc2c(-c4ccc(OC)cc4)c(-c4ccccc4)c(-c4ccccc4)n2[B-]3(F)F)cc1
photoluminescence quantum yield (in Cc1ccccc1): 0.04

C/C=C/C1=NC(=C\c2ccc([O-])cc2)/C(=O)N1C
photoluminescence quantum yield (in O): 0.0006

CCCCC1=Cc2c3ccc4cccc5ccc(c6cc(-c7ccc(N(c8ccccc8)c8ccccc8)cc7)n(c26)P1(=O)c1ccccc1)c3c45 (stereo not given)
photoluminescence quantum yield (in C1CCCCC1): 0.56
photoluminescence quantum yield (in C1CCOC1): 0.49
photoluminescence quantum yield (in C1COCCO1): 0.61
photoluminescence quantum yield (in CC#N): 0.39
photoluminescence quantum yield (in CC(C)=O): 0.52
photoluminescence quantum yield (in CO): 0.29
photoluminescence quantum yield (in Cc1ccccc1): 0.61
photoluminescence quantum yield (in ClC(Cl)Cl): 0.58
photoluminescence quantum yield (in ClCCl): 0.62

COc1ccccc1C1=[N+]2C(=C(c3ccc(I)cc3)c3ccc(-c4ccccc4OC)n3[B-]2(F)F)C=C1
photoluminescence quantum yield (in ClC(Cl)Cl): 0.08 and 0.07

F[Si-](F)(c1ccccc1)(c1ccccc1)c1cccc2ccccc12
photoluminescence quantum yield (in C1CCOC1): 0.061

N#C/C(=C(/C#N)c1ccc(-c2ccncc2)cc1)c1ccc(-c2ccncc2)cc1
photoluminescence quantum yield (in ClCCl): 0.002

CCCN1/C(=C/C=C(/C=C/C2=[N+](CCC)c3ccccc3C2(C)C)c2ccc3ccccc3n2)C(C)(C)c2ccccc21
photoluminescence quantum yield (in CO): 0.18
photoluminescence quantum yield (in CS(C)=O): 0.37
photoluminescence quantum yield (in O): 0.01

CCN(CC)c1ccc2c(c1)oc(=O)c1c(=O)oc3cc(Br)ccc3c12
photoluminescence quantum yield (in CS(C)=O): 0.25
photoluminescence quantum yield (in ClCCl): 0.9

COC(=O)c1nc2c(N)nc(N(C)C)nc2n1Cc1ccccc1
photoluminescence quantum yield (in C1COCCO1): 0.95
photoluminescence quantum yield (in CC#N): 0.75
photoluminescence quantum yield (in CO): 0.76
photoluminescence quantum yield (in ClCCl): 0.95

N#CC(C#N)=Cc1ccc(-c2ccc(-c3nc4ccccc4s3)c(O)c2)s1
photoluminescence quantum yield (in CCO): 0.0111
photoluminescence quantum yield (in ClCCl): 0.0197
photoluminescence quantum yield (in O): 0.01

COCCOCCOCCOc1ccc(OCCOCCOCCOC)c(C=O)c1
photoluminescence quantum yield (in CC(C)(C)O): 0.13
photoluminescence quantum yield (in CC(C)CO): 0.2
photoluminescence quantum yield (in CC(C)O): 0.2
photoluminescence quantum yield (in CCCCO): 0.22
photoluminescence quantum yield (in CCCO): 0.23
photoluminescence quantum yield (in CCO): 0.2
photoluminescence quantum yield (in CN(C)C=O): 0.02
photoluminescence quantum yield (in CNC=O): 0.14
photoluminescence quantum yield (in CO): 0.25
photoluminescence quantum yield (in NC=O): 0.43
photoluminescence quantum yield (in O): 0.11

CCN(CC)c1ccc(-c2nc3cc(C(NC(=O)OC(C)(C)C)C(=O)OC)ccc3o2)c(O)c1 (stereo not given)
photoluminescence quantum yield (in CC1CCCCC1): 0.11
photoluminescence quantum yield (in CC#N): 0.43
photoluminescence quantum yield (in CO): 0.08

C[Si]1(C)c2cc(C#Cc3ccccc3)ccc2C=Cc2ccc(C#Cc3ccccc3)cc21
photoluminescence quantum yield (in ClCCl): 0.77

O=Cc1ccc(C2=C3C=c4c(oc5ccccc45)=[N+]3[B-](F)(F)n3c2cc2c4ccccc4oc23)cc1
photoluminescence quantum yield (in C1CCCCC1): 0.63
photoluminescence quantum yield (in C1CCOC1): 0.42
photoluminescence quantum yield (in CC#N): 0.37
photoluminescence quantum yield (in CCOC(C)=O): 0.39
photoluminescence quantum yield (in CN(C)C=O): 0.45
photoluminescence quantum yield (in CO): 0.44
photoluminescence quantum yield (in Cc1ccccc1): 0.53
photoluminescence quantum yield (in ClCCl): 0.5

CCN1c2ccc(/C=N/Nc3ccccn3)cc2Sc2cc(-c3ccccc3)ccc21
photoluminescence quantum yield (in C1CCOC1): 0.26
photoluminescence quantum yield (in CS(C)=O): 0.37
photoluminescence quantum yield (in Cc1ccccc1): 0.17
photoluminescence quantum yield (in ClCCl): 0.27

CCCCC(CC)Cn1c2cc(C#N)ccc2c2ccc(C#N)cc21 (stereo not given)
photoluminescence quantum yield (in ClCCl): 0.3

COc1ccc2cc(C#Cc3ccc([N+](=O)[O-])cc3)ccc2c1
photoluminescence quantum yield (in C1CCOC1): 0.025
photoluminescence quantum yield (in ClC(Cl)Cl): 0.03
photoluminescence quantum yield (in ClCCl): 0.015

CC1=C2CCc3ccccc3C2=[N+]2C1=C(c1ccc(I)cc1)c1c(C)c3c(n1[B-]2(F)F)-c1ccccc1CC3
photoluminescence quantum yield (in ClC(Cl)Cl): 0.72

C/C=C/c1cc(OC)cc(OC)c1
photoluminescence quantum yield (in CC#N): 0.05
photoluminescence quantum yield (in CCCCCC): 0.04

CC1(C)c2ccccc2-n2c(-c3ccc(N4c5ccccc5Sc5ccccc54)cc3)nc3cccc1c32
photoluminescence quantum yield (in Cc1ccccc1): 0.08
photoluminescence quantum yield (in O=P(c1ccccc1)(c1ccccc1)c1ccccc1Oc1ccccc1P(=O)(c1ccccc1)c1ccccc1): 0.05

COc1ccc(-c2cc(-c3ccc(C#N)cc3)nn2C)cc1
photoluminescence quantum yield (in ClCCl): 0.3

Cc1c(C)n2c(COC(=O)CNC(=O)OC(C)(C)C)c(C)c(=O)n2c1=O
photoluminescence quantum yield (in CCO): 0.63

O=C(O)c1ccc(-c2nc(-c3ccccc3)c3c4ccccc4ccn23)cc1
photoluminescence quantum yield (in CC#N): 0.38

Nc1cc(N)cc(-c2nc3ccccc3s2)c1
photoluminescence quantum yield (in C1CCCCC1): 0.102
photoluminescence quantum yield (in C1COCCO1): 0.06
photoluminescence quantum yield (in CC#N): 0.05
photoluminescence quantum yield (in CC(C)O): 0.055
photoluminescence quantum yield (in CCOC(C)=O): 0.053
photoluminescence quantum yield (in CCOCC): 0.061
photoluminescence quantum yield (in CO): 0.015
photoluminescence quantum yield (in O): 0.0091

CCN(CC)c1ccc2cc(/C=C/C(=C(C#N)C#N)c3ccc4c(c3)c3ccccc3n4CC)c(=O)oc2c1
photoluminescence quantum yield (in CC(C)=O): 0.174
photoluminescence quantum yield (in CCOC(C)=O): 0.125
photoluminescence quantum yield (in CN(C)C=O): 0.194
photoluminescence quantum yield (in CS(C)=O): 0.185
photoluminescence quantum yield (in Cc1ccccc1): 0.041
photoluminescence quantum yield (in ClCCl): 0.146

CC(C)[Si](C#Cc1c2cc3ccccc3cc2c(C#Cc2ccccc2)c2cc3ccccc3cc12)(C(C)C)C(C)C
photoluminescence quantum yield (in ClCCl): 0.12
